Assay results as given in publication PMC6315428, “Quantification of α-Thujone and Its Metabolites in Human Urine after Consumption of a Sage Infusion Using Stable Isotope Dilution Assays” (Toxins, 2018).

Tests used:
[1] = set-up: method as in PMID 20425757; details: cited from earlier work
[2] = Human study: urinary excretion of α-thujone and hydroxythujones after consumption of a sage infusion (SIDA, SPME-GC-MS and LC-MS/MS); format: in vivo, humans; details: for detection in urine of the volunteers: after consumption of 575.0 µg α-thujone, hydroxythujones after liberation from glucuronides/sulfates; for minimum degree of glucuronidation/sulfation: human urine, calculated from two samples with free hydroxythujones above LOQ; for Total excretion in human urine: 575 µg α-thujone as sage infusion, urine over 24 h; for time after which no additional excretion was observed: after ingestion of sage infusion, all but test person 2 for 7-OH; for maximum concentration in urine: volunteer with the highest dose of 14.3 µg/kg bw, after sage infusion
Description: The protocol of the study was approved by the Ethics Committee of the Faculty of Medicine of the Technische Universität München (1996/07). Written informed consent was obtained from participants before inclusion into the study. Seven healthy, non-smoking volunteers, six Caucasian, participated in the study (3 men and 4 women, mean (±standard deviation [SD]) age 29.7 (±9.21) years, and mean (±SD) body mass index 23.1 (±5.08) kg/m^2). For 24 h prior to the study, the volunteers avoided herbs and spices containing α-thujone for a wash out. A blank urine sample was collected as a control from each volunteer before consumption of the sage infusion. On an empty stomach, the volunteers drank the tea (575 µg α-thujone) within 10 min, and urine was collected at 1, 1.5, 2.5, 3.5 h, and in the time frames of 4.5–6, 6–8, 8–14, 14–24 h after consumption. A defined meal (cheese sandwich) was eaten after 2 h. The samples were stored at 4 °C until preparation for analysis.
The cooled samples were adjusted with HCl to pH 5 and divided into 2 mL aliquots. A solution containing the labeled hydroxythujones (220–430 ng) and β-glucuronidase (5000 units/mL sample; 1 unit liberates […] phenolphthalein from its glucuronide per hour at pH 5.0 at 37 °C) was added, and the mixture stirred at 37 °C for 15 h. Afterwards, the samples were centrifuged (16000 rpm, 4 °C, 15 min) and the supernatant was subjected to solid phase extraction (SPE).
The SPE tubes (ENVI-18, 100 mg, Supelco) were equilibrated with 2 × 1 mL methanol and 2 × 1 mL water. Thereafter, the clear supernatant was loaded on the columns and was slowly passed through without suction. The protein residue was reextracted with water/methanol (95:5, 1 mL), and also loaded on the SPE tubes. The tubes were washed with water/methanol (95:5, 2 × 1 mL) by suction, and then dried carefully. Analytes were slowly eluted with water/acetonitrile (50:50, 500 µL). The extracts were analyzed by LC-MS/MS.
Measurements on the LC-MS/MS were performed using a Shimadzu LC-30A Prominence system (Shimadzu, Kyoto, Japan) interfaced to an LCMS-8050 Triple Quadrupol mass spectrometer (Shimadzu, Kyoto, Japan). A total of 40 µL was injected onto a YMC Pro Pack C4 at 30 °C oven temperature and flow of 0.5 mL/min with water (solvent A) and ACN (solvent B). The gradient was started and held at 5% B for 2 min, raised linearly from 5% B to 30% B during the next 1 min, then raised linearly to 33% within the next 7 min, and to 100% B within the next 1 min. Thereafter, the mobile phase returned to 5% B within 2 min, and the system was equilibrated for 18 min before the next run. The atmospheric pressure chemical ionization (APCI) source was operated in the positive mode under the following conditions: nebulizing gas flow 3 L/min; interface temperature 350 °C; desolvation line temperature 200 °C; drying gas flow 5 L/min. For MS/MS of the hydroxythujones, the mass transitions (m/z precursor ion/ m/z product ion) 151/81 (collision energy = −17 V) and 151/123 (−14 V) for 2-OH, 151/109 (−13 V) and 151/91 (−23 V) for 4-OH, 151/105 (−18 V) and 151/81 (−17 V) for 7-OH, 157/129 (−14 V) and 157/87 (−15 V) for d6-2-OH, […] (−16 V) and 157/91 (−23 V) for d6-4-OH, and 157/129 (−14 V) and 157/99 (−16 V) for d6-7-OH were used.
To determine the hydroxythujone content in urine, calibration functions for 2-OH, 4-OH, and 7-OH were generated with the respective labeled compounds. Calibrators with unlabeled and labeled compounds were prepared in an aqueous solution, in seven different ratios for the unlabeled compounds ranging from 3.1–601.9 µg/mL, while maintaining the labelled compounds constant at concentrations of 450 µg/mL each. The samples were measured by LC-MS/MS. From the relation of area ratios to molar ratios, calibration curves were constructed. […]

[3] = set-up: method as in PMID 11368559; details: mouse urine; cited from earlier work
[4] = system: gamma-aminobutyric acid A (GABAA) receptor; set-up: method as in PMID 10725394; details: leads to convulsions and excitations at higher concentrations in animal studies; cited from earlier work
[5] = recently deduced; cited from earlier work
[6] = test person 1, dose/bw 14.3 µg/kg, after glucuronide/sulfate deconjugation
[7] = test person 2, dose/bw 11.4 µg/kg, after glucuronide/sulfate deconjugation
[8] = test person 3, dose/bw 8.2 µg/kg, after glucuronide/sulfate deconjugation
[9] = test person 4, dose/bw 6.7 µg/kg, after glucuronide/sulfate deconjugation
[10] = test person 5, dose/bw 8.9 µg/kg, after glucuronide/sulfate deconjugation
[11] = test person 6, dose/bw 4.6 µg/kg, after glucuronide/sulfate deconjugation
[12] = test person 7, dose/bw 7.6 µg/kg, after glucuronide/sulfate deconjugation

Row | SMILES | detection in urine of the volunteers [2] | degree of glucuronidation [3] [%] | minimum degree of glucuronidation/sulfation [2] [%] | Total excretion in human urine [2, 6] [µg] | Total excretion in human urine [2, 7] [µg] | Total excretion in human urine [2, 8] [µg] | Total excretion in human urine [2, 9] [µg] | Total excretion in human urine [2, 10] [µg] | Total excretion in human urine [2, 11] [µg] | Total excretion in human urine [2, 12] [µg] | time after which no additional excretion was observed ([2]; urine) [h] | also measured
1 | CC12CCC(CC1)C(C)(C)O2 [1,8-cineole] |  |  |  |  |  |  |  |  |  |  |  | dose recovered as the sum of 2-, 9-, 3- and 7-hydroxy-1,8-cineole [1]: 52.5%
2 | CC(C)[C@@]12C[C@@H]1[C@@H](C)C(=O)[C@@H]2O [2-OH, 2-hydroxythujone] | not being detectable | 85 |  |  |  |  |  |  |  |  |  | detection in urine of the volunteers ([2]; listed as 2-Hydroxythujone): not present
3 | CC(C)[C@]12CC(=O)[C@@](C)(O)[C@H]1C2 [4-OH, 4-hydroxythujone] | detectable | 61 | ≥ 66 | 13.9 | 17.9 | 14.6 | 11.8 | 16.5 | 17.0 | 26.3 | 7 to 8 | 
4 | C[C@H]1C(=O)C[C@]2(C(C)(C)O)C[C@H]12 [7-OH, 7-hydroxythujone] | detectable | 2 | ≥ 55 | 15.6 | 20.9 | 8.6 | 4.0 | 7.8 | 6.9 | 5.9 | 7 to 8 | slower excretion until ([2]; urine, test person 2): 16 h
5 | CC(C)[C@]12CC(=O)[C@H](C)[C@H]1C2 [thujone] |  |  |  |  |  |  |  |  |  |  |  | effect on GABAA receptor [4]: inhibits
6 | CC(C)[C@]12CC(=O)[C@H](C)[C@H]1C2 [α-thujone] | detectable |  |  |  |  |  |  |  |  |  |  | detection in urine of the volunteers ([2]; listed as α-Thujone): detectable in a low amount; time after which urine concentration fell under the LODs ([2]; most volunteers): 4.5 h; Total excretion in human urine ([2]; test person 1, dose/bw 14.3 µg/kg): 0.0451 µg; Total excretion in human urine ([2]; test person 2, dose/bw 11.4 µg/kg): 0.008 µg; Total excretion in human urine ([2]; test person 3, dose/bw 8.2 µg/kg): 0.0361 µg; Total excretion in human urine ([2]; test person 4, dose/bw 6.7 µg/kg): 0.0163 µg; Total excretion in human urine ([2]; test person 5, dose/bw 8.9 µg/kg): 0.0107 µg; Total excretion in human urine ([2]; test person 6, dose/bw 4.6 µg/kg): 0.025 µg; Total excretion in human urine ([2]; test person 7, dose/bw 7.6 µg/kg): 0.0351 µg; time within which excreted ([2]; urine, almost all volunteers): ≤ 8 h; maximum concentration in urine [2]: 94.3 ng/L; maximum concentration in urine ([2]; listed as α-Thujone): 94 ng/L; acceptable daily intake [5]: 110 µg/kg bw/d
